Assay in all cases: microbe, parasite or virus in culture
What all share (type): cell-based

For assay [1], the system named is SARS-CoV-2 strain USA/PHC658/2021 (B.1.617.2; delta). The conditions noted are these: for LRV (log reduction value): average reduction of virus vs average virus control.
The subject of assay [2] is Influenza A/CA/07/09 (H1N1). Particulars: for LRV (log reduction value): average reduction of virus vs average virus control.
In assay [3] the test system is Respiratory Syncytial Virus (RSV) strain A2. Particulars: for LRV (log reduction value): average reduction of virus vs average virus control; for antiviral activity against RSV (in words): summary of Table 2.

Values after ≈ are worked out from the molar mass of the structure shown. Values joined by “and” are separate entries in the source; they are usually repeats but may differ in a detail not shown here. Identical values can stand only once. Counter-ions that a name gives are not always drawn.

As usually defined, the EC90 is the concentration at which the effect reaches the 90% level. A high value points to a need for much substance.

With `CN(C)CCC(c1ccc(Cl)cc1)c1ccccn1` (centres unmarked) [Chlorpheniramine Maleate, reference compound], the “Log10 CCID50 virus per 0.2 mL” value in assay [1] (concentration 1 %) was 2.30 and 2.50; in assay [3] (concentration 1 %), 1.50. The “LRV (log reduction value)” value in assay [1] (concentration 1 %, day 6) is listed as 2.69; in assay [2] (concentration 1 %, day 3), 6.02; in assay [3] (concentration 1 %, day 5), 2.99.

Regarding `OC[C@@H](O)[C@@H](O)CO` [Erythritol], the “LRV (log reduction value)” value stood at 3.29 in assay [1] (concentration 5 %, day 6); 3.17 in assay [2] (concentration 5 %, day 3); 1.84 in assay [3] (concentration 5 %, day 5). Besides, the “antiviral activity against H1N1 (in words)” value in assay [2] (summary of Table 1) was “showed antiviral activity”.

As to `NC(=O)c1ncn([C@@H]2O[C@H](CO)[C@@H](O)[C@H]2O)n1` [Ribavirin, reference compound], the EC90 in assay [2] (Influenza A virus, H1N1, 72 h) turned out to be 3.1 mg/L (≈ 12.7 µM); in assay [3] (human respiratory syncytial virus, 120 h, 90% effective concentration (reduce virus yield by 1 log10), regression analysis, day 5) it was 4.6 mg/L (≈ 18.8 µM). The “Log10 CCID50 virus per 0.2 mL” value in assay [2] (concentration 100 μg/ml) was 0.67; in assay [3] (concentration 100 μg/ml), 1.30. The SI entry is recorded as “SI >32” in assay [2] (with the EC90, day 3) and “SI >22” in assay [3] (with the EC90, day 5).

`OC[C@@H](O)[C@@H](O)[C@H](O)[C@@H](O)CO` [Sorbitol]: the “Log10 CCID50 virus per 0.2 mL” value in assay [1] (concentration 5 %) was 1.50 and 1.67; in assay [3] (concentration 5 %), 2.00. The “LRV (log reduction value)” value is 3.5 in assay [1] (concentration 5 %, day 6); 1.47 in assay [2] (concentration 5 %, day 3); 2.49 in assay [3] (concentration 5 %, day 5). Besides, the “antiviral activity against RSV (in words)” value in assay [3] was “antiviral activity”.

As to `CCC(CC)COC(=O)[C@H](C)N[P@](=O)(OC[C@H]1O[C@@](C#N)(c2ccc3c(N)ncnn23)[C@H](O)[C@@H]1O)Oc1ccccc1` [Remdesivir], the EC90 in assay [1] (Severe acute respiratory syndrome coronavirus 2, 144 h) is 0.12 mg/L (≈ 0.199 µM). The “Log10 CCID50 virus per 0.2 mL” value in assay [1] (concentration 5 μg/ml) came to 0.67. Further, the SI result in assay [1] (with the EC90, day 6) is listed as “SI >42”.

For the compound `OC[C@@H](O)[C@H](O)[C@@H](O)CO` [Xylitol], the “LRV (log reduction value)” value in assay [1] (concentration 5 %, day 6) was determined as 3.84; in assay [2] (concentration 5 %, day 3) it was 1.27; in assay [3] (concentration 5 %, day 5), 2.65. Besides, the “Log10 CCID50 virus per 0.2 mL” value in assay [2] (concentration 5 %) was determined as 6.00. The “antiviral activity against RSV (in words)” value in assay [3] is “antiviral activity”.

The values are drawn from US20240000878A1 (priority 2022, published 2024).
